Measured values: patent publication US20090156620A1, “[4-(6-FLUORO-7-METHYLAMINO-2,4-DIOXO-1,4-DIHYDRO-2H-QUINAZOLIN-3-YL)-PHENYL]-5-CHLORO-THIOPHEN-2-YL-SULFONYLUREA SALTS, FORMS AND METHODS RELATED THERETO” (Portola Pharmaceuticals, Inc., priority 2007, published 2009)
Where “and” joins values, the source holds several entries; their conditions need not be identical. Equal values may be shown once. Read-outs that look alike come from different tables or passages of the source. Blank lines part the entries; values can stand above or below the molecule they belong to.

Tests used:
[1] = molecular target: T1, P2Y12 receptor on platelets (Homo sapiens, UniProt Q9H244); experiment: platelet ADP receptor binding assay (ARB), inhibition of [3H]2-MeS-ADP binding to platelets
T1 construct: endogenous in cells; host or cells: whole apyrase-washed human platelets (outdated from hospital blood banks, or fresh)
Description: 1. The Ability of Candidate Molecules to Inhibit the Binding of [3H]2-MeS-ADP to the P2Y12 Receptor on Platelets was Determined Using a Radioligand Binding Assay
Utilizing this assay the potency of inhibition of such compounds with respect to [^3H]2-MeS-ADP binding to whole platelets is determined. Under the conditions described in II (3) below, the binding of [^3H]2-MeS-ADP is solely due to the interaction of this ligand with the P2Y12 receptor, in that all the specific binding measured in this assay is compatable with a P2Y12 antagonist (i.e., the specific binding is reduced to background levels by competition with an excess of P2Y12 antagonist, with no competition of binding when a P2Y1 antagonist is pre-incubated with the platelet preparation). […]
A platelet ADP receptor binding assay (ARB) using the tritiated potent agonist ligand [^3H]2-MeS-ADP (Jantzen, H. M. et al. (1999) Thromb. Hemost. 81:111-117) has been adapted to the 96-well microtiter format. […] Total binding is determined in the absence of test compounds. […] The platelet-bound radioactivity on the filtermats is determined in a scintillation counter (Microbeta 1450, Wallac Inc., Gaithersburg, Md.). Specific binding is determined by subtraction of non-specific binding from total binding, and specific binding in the presence of test compounds is expressed as % of specific binding in the absence of test compound dilutions. […]

[2] = system: ADP-induced human platelet aggregation; experiment: inhibition of ADP-mediated platelet aggregation in platelet-rich plasma (PRP assay); format: cell-based
Description: The effect of testing the compound according to the invention on ADP-induced human platelet aggregation was assessed in a 96-well microtiter assay (see generally the procedures in Jantzen, H. M. et al. (1999) Thromb. Hemost. 81:111′-117) or standard cuvette light transmittance aggregometry using either human platelet-rich plasma (PRP) or human washed platelets.
For preparation of human platelet-rich plasma for aggregation assays, human venous blood was collected from healthy, drug-free volunteers into 0.38% sodium citrate (0.013 M, pH 7.0 final). Platelet-rich plasma (PRP) is prepared by centrifugation of whole blood at 160×g for 20 minutes at room temperature. […]
For cuvette light transmittance aggregation assays, serial dilutions (1:3) of test compounds were prepared in 100% DMSO in a 96 well V-bottom plate (final DMSO concentration in the cuvette was 0.6%). […] The aggregation reaction is recorded for ˜5 mins, and maximum extent of aggregation is determined by the difference in extent of aggregation at baseline, compared to the maximum aggregation that occurs during the five minute period of the assay. Inhibition of aggregation was calculated as the maximum aggregation observed in the presence of inhibitor, compared to that in the absence of inhibitor. […]

[3] = solid form stability on storage at elevated temperature/humidity, by XRPD; format: physicochemical; details: for Stability: further changes / Stability: XRPD; for Stability: storage at 40° C./75% RH, days as in the value
Description: To 20 mg of [4-(6-fluoro-7-methylamino-2,4-dioxo-1,4-dihydro-2H-quinazolin-3-yl)-phenyl]-5-chloro-thiophen-2-yl-sulfonylurea in 3 mL of the various solvents, was added 1.1 eq. of the base in 1 mL solvent. The mixture was shaken for 2 hours and the solutions were left to evaporate down to half their volume to try to precipitate out the salt. […] Oils/emulsions and opaque liquids were left to maturate at 50° C./ambient in an 8 hour cycles for several weeks. […] Solid samples (crystalline and amorphous) were then filtered, dried and then analyzed to judge their purity, crystallinity and stability. Solids were analysed by ^1H NMR to confirm salt formation and analyzed by ion chromatography and TGA to obtain the stoichiometry of the salt.

[4] = for Aqueous solubility**: aqueous thermodynamic solubility, 25° C., 24 hours, expressed as free base equivalents, 100 mg scale-up samples
Description: The suspension was then filtered through a glass fibre C filter into a 96 well plate. […] Quantitation was by HPLC with reference to a standard solution of approximately 0.1 mg.ml^−1. in DMSO. Different volumes of the standard, diluted and undiluted sample solutions were injected.
If there was sufficient solid in the filter plate, the XRPD pattern was collected.

[5] = gravimetric vapour sorption (GVS); format: physicochemical; details: for GVS: Total weight change 0-90% RH: 25° C.; for GVS: XRPD post GVS: wrapped cells read: shows new form / matches stability samples / shows no change
Description: Sorption isotherms were obtained using a Hiden IGASorp moisture sorption analyser, controlled by CFRSorp software. The sample temperature was maintained at 25° C. by a Huber re-circulating water bath. The humidity was controlled by mixing streams of dry and wet nitrogen, with a total flow rate of 250 ml.min^−1. […] (typical room conditions). A moisture sorption isotherm was performed as outlined below (2 scans giving 1 complete cycle). […] The software uses a least squares minimisation procedure together with a model of the mass relaxation, to predict an asymptotic value. […] The minimum equilibration time was set to 1 hour and the maximum to 4 hours. The sample was recovered after completion of the isotherm and re-analysed by XRPD.

[6] = storage, time not stated (figure legend)
[7] = after a further 10 days at 60° C./75% RH
[8] = a further 4 days at 60° C./75% RH (figure legend)

T1 sequence (Q9H244 whole entry): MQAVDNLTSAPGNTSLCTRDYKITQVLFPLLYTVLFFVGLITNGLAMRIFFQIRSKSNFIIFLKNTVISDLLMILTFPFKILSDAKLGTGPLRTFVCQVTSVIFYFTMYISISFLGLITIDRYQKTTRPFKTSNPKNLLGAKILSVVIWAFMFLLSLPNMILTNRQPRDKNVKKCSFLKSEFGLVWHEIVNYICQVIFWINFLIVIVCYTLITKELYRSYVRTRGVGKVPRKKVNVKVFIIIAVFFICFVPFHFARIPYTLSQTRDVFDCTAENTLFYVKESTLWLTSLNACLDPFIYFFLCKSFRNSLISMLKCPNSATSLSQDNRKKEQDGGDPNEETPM

Molecule: CNc1cc2[nH]c(=O)n(-c3ccc(NC(=O)NS(=O)(=O)c4ccc(Cl)s4)cc3)c(=O)c2cc1F [Example 2, [4-(6-fluoro-7-methylamino-2,4-dioxo-1,4-dihydro-2H-quinazolin-3-yl)-phenyl]-5-chloro-thiophen-2-yl-sulfonylurea]
IC50 [1]: < 0.05 µM
IC50 [2]: < 10 µM

Molecule: CNc1cc2[nH]c(=O)n(-c3ccc(NC(=O)NS(=O)(=O)c4ccc(Cl)s4)cc3)c(=O)c2cc1F.[K] [Potassium hydroxide, [4-(6-fluoro-7-methylamino-2,4-dioxo-1,4-dihydro-2H-quinazolin-3-yl)-phenyl]-5-chloro-thiophen-2-yl-sulfonylurea potassium salt]
stability with respect to 40° C./75% RH by XRPD [3]: converts to an amorphous phase
Aqueous solubility** [4]: 2700 µg/mL

Molecule: CNc1cc2[nH]c(=O)n(-c3ccc(NC(=O)NS(=O)(=O)c4ccc(Cl)s4)cc3)c(=O)c2cc1F.[Na] [Sodium Ethoxide, [4-(6-fluoro-7-methylamino-2,4-dioxo-1,4-dihydro-2H-quinazolin-3-yl)-phenyl]-5-chloro-thiophen-2-yl-sulfonylurea sodium salt]
Stability: further changes ([3]; after 10 days at 40° C./75% RH): at 40° C./75% RH (no
Stability ([3]; sodium salt): Some changes after 2 days
GVS: Total weight change 0-90% RH [5]: 8.8 wt %, little hysteresis,
GVS: XRPD post GVS [5]: XRPD post GVS shows new
Aqueous solubility** [4]: 7700 µg/mL

Molecule: CNc1cc2[nH]c(=O)n(-c3ccc(NC(=O)NS(=O)(=O)c4ccc(Cl)s4)cc3)c(=O)c2cc1F.[Na] [Sodium hydroxide, [4-(6-fluoro-7-methylamino-2,4-dioxo-1,4-dihydro-2H-quinazolin-3-yl)-phenyl]-5-chloro-thiophen-2-yl-sulfonylurea sodium salt]
Stability ([3]; sodium salt): Amorphous after 3 days at
stability with respect to 40° C./75% RH by XRPD [3, 6]: converts to an amorphous phase

Molecule: CNc1cc2[nH]c(=O)n(-c3ccc(NC(=O)NS(=O)(=O)c4ccc(Cl)s4)cc3)c(=O)c2cc1F.N [ammonium salt (form A), [4-(6-fluoro-7-methylamino-2,4-dioxo-1,4-dihydro-2H-quinazolin-3-yl)-phenyl]-5-chloro-thiophen-2-yl-sulfonylurea ammonium salt]
stability with respect to 40° C./75% RH by XRPD [3, 6]: improvements in crystallinity

Molecule: CNc1cc2[nH]c(=O)n(-c3ccc(NC(=O)NS(=O)(=O)c4ccc(Cl)s4)cc3)c(=O)c2cc1F.[K] [form C, [4-(6-fluoro-7-methylamino-2,4-dioxo-1,4-dihydro-2H-quinazolin-3-yl)-phenyl]-5-chloro-thiophen-2-yl-sulfonylurea potassium salt]
XRPD after the GVS experiment [5]: reduced in crystallinity
pH ([4]; pH of the suspension in the solubility measurement, potassium salt): 8.7 and 8.8
Thermodynamic solubility in water ([4]; water): 4500 µg/mL

stability by XRPD ([3]; 3 days at 40° C./75% RH): remains stable
Stability: further changes [3, 7]: No changes
Stability [3]: No changes after 3 days
stability by XRPD [3, 8]: remains stable
GVS: Total weight change 0-90% RH [5]: 13 wt %, mostly 80-90% RH,
GVS: XRPD post GVS [5]: XRPD post GVS matches
Molecule: [4-(6-fluoro-7-methylamino-2,4-dioxo-1,4-dihydro-2H-quinazolin-3-yl)-phenyl]-5-chloro-thiophen-2-yl-sulfonylurea calcium salt [Calcium acetate]

Molecule: [4-(6-fluoro-7-methylamino-2,4-dioxo-1,4-dihydro-2H-quinazolin-3-yl)-phenyl]-5-chloro-thiophen-2-yl-sulfonylurea tromethamine salt
stability by XRPD ([3]; 3 days at 40° C./75% RH): some subtle changes
Stability: further changes [3, 7]: at 40° C./75% RH but no
Stability [3]: Some changes after 3 days
stability by XRPD [3, 8]: no further changes
GVS: Total weight change 0-90% RH [5]: 4.1 wt %, little hysteresis,
GVS: XRPD post GVS [5]: XRPD post GVS matches
